Columns and labels:
[1] = system: C. trachomatis; conditions: added to the replication phase of developmental cycle; cited from earlier work
[2] = system: MT-S247A (recombinant cHtrA mutant); format: in vitro ADME, C. trachomatis serovar D; conditions: AMP 100 μg/mL, mutant 100 μg/mL, 37°C, 30 min
[3] = system: MT-H143A (recombinant cHtrA mutant); format: in vitro ADME, C. trachomatis serovar D; conditions: AMP 100 μg/mL, mutant 100 μg/mL, 37°C, 30 min
[4] = system: recombinant cHtrA; format: in vitro ADME, C. trachomatis serovar D; conditions: AMP 100 μg/mL, cHtrA 100 μg/mL, 37°C, 30 min; Coomassie blue staining

Row | SMILES | Effect on C. trachomatis [1] | Degradation of AMP by MT-S247A [2] | Degradation of AMP by MT-H143A [3] | Degradation of AMP by 100 μg/mL recombinant cHtrA [4]
1 | CC(C)C(NC(=O)[C@@H]1CCCN1C(=O)[C@@H](NC(=O)OC(C)(C)C)C(C)C)P(=O)(Oc1ccccc1)Oc1ccccc1 (stereo partly shown) [JO146] | lethal to C. trachomatis | – | – | –
2 | CC[C@H](C)[C@H](NC(=O)[C@H](CCCCN)NC(=O)[C@H](CCC(=O)O)NC(=O)[C@H](CCCCN)NC(=O)[C@H](CO)NC(=O)[C@H](CCCCN)NC(=O)[C@H](CCCNC(=N)N)NC(=O)[C@H](Cc1ccccc1)NC(=O)[C@H](Cc1ccccc1)NC(=O)[C@H](CC(=O)O)NC(=O)CNC(=O)[C@H](CC(C)C)NC(=O)[C@@H](N)CC(C)C)C(=O)NCC(=O)N[C@@H](CCCCN)C(=O)N[C@@H](CCC(=O)O)C(=O)N[C@@H](Cc1ccccc1)C(=O)N[C@@H](CCCCN)C(=O)N[C@@H](CCCNC(=N)N)C(=O)N[C@H](C(=O)N[C@H](C(=O)N[C@@H](CCC(N)=O)C(=O)N[C@@H](CCCNC(=N)N)C(=O)N[C@H](C(=O)N[C@@H](CCCCN)C(=O)N[C@@H](CC(=O)O)C(=O)N[C@@H](Cc1ccccc1)C(=O)N[C@@H](CC(C)C)C(=O)N[C@@H](CCCNC(=N)N)C(=O)N[C@@H](CC(N)=O)C(=O)N[C@@H](CC(C)C)C(=O)N[C@H](C(=O)N1CCC[C@H]1C(=O)N[C@@H](CCCNC(=N)N)C(=O)N[C@H](C(=O)N[C@@H](CCC(=O)O)C(=O)N[C@@H](CO)C(=O)O)[C@@H](C)O)C(C)C)[C@@H](C)CC)C(C)C)[C@@H](C)CC [LL-37] | – | unable to degrade LL-37 | unable to degrade LL-37 | degraded all LL-37

— paper PMC7366784 (Medical Science Monitor : International Medical Journal of …, 2020)
